“And” between values parts separate entries of the source, which are not always exact repeats. Equal entries are not always repeated.
What was measured:
S. aureus Newman = assay: MIC determination, S. aureus; assay type: cell-based, Staphylococcus aureus; conditions: MH broth, 22 h, 37 °C
Source text: (§1) The bacterial strains Escherichia coli ATCC25922 and Staphylococcus aureus Newman were used in this work and maintained in Lennox Broth (LB) solid medium, composed of 10 g/L tryptone, 5 g/L yeast extract, 5 g/L NaCl and 20 g/L agar. The fungal strains Candida albicans SC5134 and C. glabrata CBS138 were used in this work and maintained in YPD solid medium, composed of 20 g/L glucose, 20 g/L peptone, 10 g/L yeast extract and 15 g/L agar. The strains were isolated from human infections.
(§2) The antimicrobial activity of the complexes towards the bacterial and fungal strains was assessed by the determination of the Minimal Inhibitory Concentration (MIC) of each complex towards the indicated microbial strains, based on standard methods, and as previously described. […] Serial 1:2 dilutions of stock solutions were prepared for each complex in Mueller–Hinton (MH) broth (Fluka Analytical) or RPMI-1640 medium (Sigma) supplemented with 20 g/L glucose and buffered with 0.165 M morpholinepropanesulphonic acid (RPMIG) to pH 7.0. Solutions prepared with MH were used for testing bacteria, while those prepared with RPMIG were used for testing fungi. For antibacterial activity assays, the final concentrations ranged from 250 to 0.24 μg/mL (when stock solution final concentration was 10 mg/mL), 125 μg/mL to 0.12 μg/mL (when stock solution final concentration was 5 mg/mL) and 62.5 to 0.06 μg/mL (when stock solution final concentration was 2.5 mg/mL). For antifungal assays, the final concentrations ranged from 125 μg/mL to 0.12 μg/mL (when stock solution final concentration was 10 mg/mL), 62.5 to 0.06 μg/mL (when stock solution final concentration was 5 mg/mL) and 31.25 to 0.03 μg/mL (when stock solution final concentration was 2.5 mg/mL). Then, 100 μL aliquots of adequately diluted bacterial suspensions of S. aureus Newman or E. coli ATCC 25922 were mixed with the MH serially diluted complexes aliquots to obtain 5 × 10^5 CFU/mL. In the case of fungi, cultures were diluted to obtain a final optical density of 0.025, measured at 530 nm (OD530). Bacterial suspensions were prepared from cultures grown for 5 h in MH broth at 37 °C and 250 rev·min^−1 and adequately diluted with fresh MH medium, while fungal suspensions were prepared from overnight cultures grown in YPD broth at 30 °C and 250 rev.min^−1 and diluted in buffered RPMIG. After 22 h of incubation at 37 °C (bacteria) or 24 h at 35 °C (fungi), the wells’ content was resuspended by pipetting and the OD640 (bacteria) or OD530 (fungi) were measured in a SPECTROstar Nano microplate reader (BMG Labtech).
(§3) At least three independent experiments were performed in duplicate for each complex under study. […] Positive (no complex) and negative controls (no inoculum) were performed for each experiment. The effect of 5% (V/V) DMSO on microbial growth was also assessed.

P. berghei hepatic stage = assay: In vitro activity against the hepatic stage of P. berghei infection (luciferase, Huh7 cells); assay type: cell-based, Plasmodium berghei; conditions: hepatic stage, Huh7 cells, 46 hpi
Procedure: (§4) The in vitro liver stage activity of gold complexes was assessed against P. berghei-infected Huh7 cells, as previously described. Briefly, Huh7 cells were cultured in RPMI-1640 medium supplemented with 10% (v/v) fetal bovine serum, 1% (v/v) penicillin/streptomycin, 1% (v/v) glutamine, 1% (v/v) non-essential amino acids and 10 mM HEPES. On the day prior to infection, Huh7 cells were seeded in 96-well plates at a density of approximately 3.1 × 10^4 cell/cm^2 and incubated at 37 °C, 5% CO2. Stock solutions of the complexes were initially prepared in DMSO and serially diluted in infection medium, i.e., culture medium supplemented with gentamicin (50 µg/mL) and fungizone (0.8 µg/mL), to obtain the test concentrations. As a control, DMSO was diluted in infection medium to a percentage that equals that of the highest compound concentrations tested. These dilutions were added to the cells in triplicates and incubated for 1 h at 37 °C, 5% CO2, after which 1 × 10^4 luciferase-expressing P. berghei sporozoites were added to each well. Plates were centrifuged at 1800× g for 5 min at room temperature and incubated for the duration of the assay. At 46 h post-infection (hpi), the impact of each compound concentration on cell viability was assessed by the Alamar Blue (Invitrogen, Buckinghamshire, UK) assay, according to the manufacturer’s recommendations. Infection was next assessed by bioluminescence, employing the Firefly Luciferase Assay Kit 2.0 (Biotium, Fremont, CA, USA), according to the manufacturer’s recommendations. For IC50 determination, nonlinear regression analysis was employed to fit the normalized results of the dose–response curves, using GraphPad Prism 8 (GraphPad software, La Jolla, CA, USA).

Huh7 cells = assay: Cell viability (cell confluency, Alamar Blue) of P. berghei-infected Huh7 cells; assay type: cell-based; conditions: 5 µM, in words
Procedure: as §4

[1] = tested on: P. falciparum NF54 blood stage; assay: In vitro activity against the blood stage of P. falciparum NF54 (SYBR green flow cytometry); assay type: cell-based, Plasmodium falciparum; conditions: 48 h, read-out: IC50 PfNF54
Procedure: Ring-stage synchronized cultures of PfNF54 at 2.5% hematocrit and at approximately 1% parasitemia were incubated with gold complexes or DMSO (vehicle control) in 96 well-plates, for 48 h, at 37 °C in a 5% CO2 and 5% O2 atmosphere. Stock solutions of Chloroquine (positive control), [P][AuSEt(=S)] and [P][AuSEt(=Se)] were prepared in DMSO. Working solutions were prepared from the stock solutions in complete malaria culture medium (CMCM), which consists of RPMI 1640 supplemented with 25 mM HEPES, 2.4 mM L-glutamine, 50 μg/mL gentamicin, 0.5% w/v Albumax, 11 mM glucose, 1.47 mM hypoxanthine and 37.3 mM NaHCO3. For each measurement, 5 µL of the culture (approximately 800,000 cells) was stained with the DNA-specific dye SYBR green I at 1×. After 20 min of incubation, in the dark, the stained sample was analyzed by flow cytometry. For each flow cytometric measurement, approximately 100,000 events were analyzed. All samples were analyzed in triplicate and two independent experiments were performed.

E. coli ATCC25922 = assay: MIC determination, E. coli; assay type: cell-based, Escherichia coli; conditions: MH broth, 22 h, 37 °C
Source text: as §1, §2, §3

In the case of `CCn1c2c(sc1=S)[S][Au-]1([S]c3sc(=S)n(CC)c3[S]1)[S]2.c1ccc([P+](c2ccccc2)(c2ccccc2)c2ccccc2)cc1` [[P][AuSEt(=S)]], the “MIC S. aureus Newman” value (S. aureus Newman) is reported as over 125 µg/mL, the IC50 (P. berghei hepatic stage) is reported as 474 ± 110 nM and the “toxicity seen as lower cell confluency” value (Huh7 cells) is reported as “some degree of toxicity”. For the same molecule, the IC50 [1] was 1060 ± 393 nM and the “MIC E. coli ATCC25922” value (E. coli ATCC25922) was over 125 µg/mL.

`CC(=O)OC[C@H]1O[C@@H]([S-])[C@H](OC(C)=O)[C@@H](OC(C)=O)[C@@H]1OC(C)=O.CCP(CC)CC.[Au+]` [Auranofin, reference compound] was tested, and the “MIC S. aureus Newman” value (S. aureus Newman) was 0.2 µg/mL and 0.173 ± 0.004 µg/mL and the “MIC E. coli ATCC25922” value (E. coli ATCC25922) was 35.5 µg/mL and 35.5 ± 0.6 µg/mL.

For `CCn1c2c(sc1=[Se])[S][Au-]1([S]c3sc(=[Se])n(CC)c3[S]1)[S]2.c1ccc([P+](c2ccccc2)(c2ccccc2)c2ccccc2)cc1` [[P][AuSEt(=Se)]], the “MIC S. aureus Newman” value (S. aureus Newman) was over 125 µg/mL, the IC50 (P. berghei hepatic stage) was 416 ± 123 nM and the “toxicity seen as lower cell confluency” value (Huh7 cells) was “some degree of toxicity”. The IC50 [1] was 1000 ± 391 nM and the “MIC E. coli ATCC25922” value (E. coli ATCC25922) was over 125 µg/mL.

With `CCCCn1c2c(sc1=S)[S][Au-]1([S]c3sc(=S)n(CCCC)c3[S]1)[S]2.c1ccc([P+](c2ccccc2)(c2ccccc2)c2ccccc2)cc1` [[P][AuSBu(=S)]] the “MIC S. aureus Newman” value (S. aureus Newman) was over 125 µg/mL, the IC50 (P. berghei hepatic stage) was 470 ± 115 nM and the “MIC E. coli ATCC25922” value (E. coli ATCC25922) was over 125 µg/mL.

For `CC(C)n1c2c(sc1=S)[Se][Au-]1([Se]c3sc(=S)n(C(C)C)c3[Se]1)[Se]2.c1ccc([P+](c2ccccc2)(c2ccccc2)c2ccccc2)cc1` [[P][AuSeiPr(=S)]], the “MIC S. aureus Newman” value (S. aureus Newman) was over 62.5 µg/mL, the IC50 (P. berghei hepatic stage) was 748 ± 70.2 nM and the “MIC E. coli ATCC25922” value (E. coli ATCC25922) was over 62.5 µg/mL.

Reference: publication PMC9266914, “Broad Spectrum Functional Activity of Structurally Related Monoanionic Au(III) Bis(Dithiolene) Complexes” (International Journal of Molecular Sciences, 2022)
